We go through six compounds from paper PMC8347686, “Thiourea Derivatives, Simple in Structure but Efficient Enzyme Inhibitors and Mercury Sensors” (Molecules, 2021).

One may read the IC50 as the concentration that gives 50% inhibition. By inhibition is commonly meant the percentage by which the read-out fell short of the control. Lower therefore signals little suppression.

The target of assay [1] is T1, AChE (Electrophorus electricus, UniProt O42275).
T1 construct: The enzyme AChE is derived from Electric eel and BChE from equine serum; from tissue
T1 sequence (O42275 24-633): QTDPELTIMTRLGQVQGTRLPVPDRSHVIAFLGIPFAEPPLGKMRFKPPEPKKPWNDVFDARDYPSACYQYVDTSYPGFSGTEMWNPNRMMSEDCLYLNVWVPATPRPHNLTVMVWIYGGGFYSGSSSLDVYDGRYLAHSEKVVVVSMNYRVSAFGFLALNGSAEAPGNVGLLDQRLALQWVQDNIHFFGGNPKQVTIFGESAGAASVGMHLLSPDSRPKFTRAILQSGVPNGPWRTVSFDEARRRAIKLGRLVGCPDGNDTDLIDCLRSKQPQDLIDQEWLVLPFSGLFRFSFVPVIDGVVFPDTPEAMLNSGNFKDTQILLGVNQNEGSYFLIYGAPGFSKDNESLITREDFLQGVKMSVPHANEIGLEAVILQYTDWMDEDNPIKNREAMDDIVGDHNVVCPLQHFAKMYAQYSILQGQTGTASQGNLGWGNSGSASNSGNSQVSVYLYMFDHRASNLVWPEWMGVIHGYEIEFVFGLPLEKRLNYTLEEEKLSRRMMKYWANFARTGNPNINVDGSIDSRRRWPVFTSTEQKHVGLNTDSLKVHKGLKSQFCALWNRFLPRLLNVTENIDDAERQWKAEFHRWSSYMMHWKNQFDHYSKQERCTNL
Put plainly: biochemical. The note with it: for inhibition at 62.5 µg/mL: Conc. 62.5 µg/mL; for inhibition at 125 µg/mL: Conc. 125 µg/mL; for inhibition at 250 µg/mL: Conc. 250 µg/mL; for inhibition at 500 µg/mL: Conc. 500 µg/mL; for inhibition at 1000 µg/mL: Conc. 1000 µg/mL. Here is the method:
(§1) The enzyme AChE is derived from Electric eel and BChE from equine serum. Buffer of phosphate, 0.1 M at pH 8.0 was prepared to whom varied concentration ([…]–1000 μg/mL) of the respective compound was added. The solution of AChE was diluted to 0.03 U/mL from 518 U/mg, similarly BChE from 7–16 U/mg to 0.01 U/mL at the given pH condition. Distilled water was used as solvent, for preparation of 0.5 mM acetylthiocholine iodide (ATchI), 0.2273 mM 5,5′-dithiobis-2-nitrobenzoic acid (DTNB) and 0.5 mM butyrylthiocholine iodide (BTchI). All solutions were stored at 8 °C in a refrigerator prior to performing the experiment.
(§2) Enzyme solution (5 μL), corresponding compound (205 μL), and DTNB reagent (5 μL) were mixed in a cuvette. The solution was incubated for 15 min at 30 °C followed by addition of 5 μL of the substrate solution. Absorbance of the incubated sample was measured at 412 nm by a double-beam spectrophotometer (Thermo Electron Corporation, USA) for 4 min along with the reaction time at 30 °C. The well-established Galanthamine was used as positive control and all experiments were performed in triplicate. The percent enzyme activity and enzyme inhibition by control and test samples were calculated from the rate of absorption with respect to change in time (V = ΔAbs/Δt) using the same procedure as reported previously.

Assay [2] has as its target T2, BChE (Equus caballus, UniProt P81908).
T2 construct: The enzyme AChE is derived from Electric eel and BChE from equine serum; from tissue; host or cells: equine serum
Put plainly: Ellman's assay, BChE inhibition. It is filed as biochemical. The following applies: for inhibition at 62.5 µg/mL: Conc. 62.5 µg/mL; for inhibition at 125 µg/mL: Conc. 125 µg/mL; for inhibition at 250 µg/mL: Conc. 250 µg/mL; for inhibition at 500 µg/mL: Conc. 500 µg/mL; for inhibition at 1000 µg/mL: Conc. 1000 µg/mL. Here is the method:
as §1, §2
Background: Ellman's reagent forms a yellow product with free thiols.

Assay [3] relates to mushroom tyrosinase. The arrangement: method as in PMID 21978680, PMID 28904627. The following applies: ref [6],[42]; cited from earlier work.
Assay [4] relates to melanin B16 cells. The arrangement: method as in PMID 21978680, PMID 28904627. The following applies: ref [6],[42]; read-out: IC50 as melanin B16 inhibitor; cited from earlier work.

T2 sequence (P81908 whole entry): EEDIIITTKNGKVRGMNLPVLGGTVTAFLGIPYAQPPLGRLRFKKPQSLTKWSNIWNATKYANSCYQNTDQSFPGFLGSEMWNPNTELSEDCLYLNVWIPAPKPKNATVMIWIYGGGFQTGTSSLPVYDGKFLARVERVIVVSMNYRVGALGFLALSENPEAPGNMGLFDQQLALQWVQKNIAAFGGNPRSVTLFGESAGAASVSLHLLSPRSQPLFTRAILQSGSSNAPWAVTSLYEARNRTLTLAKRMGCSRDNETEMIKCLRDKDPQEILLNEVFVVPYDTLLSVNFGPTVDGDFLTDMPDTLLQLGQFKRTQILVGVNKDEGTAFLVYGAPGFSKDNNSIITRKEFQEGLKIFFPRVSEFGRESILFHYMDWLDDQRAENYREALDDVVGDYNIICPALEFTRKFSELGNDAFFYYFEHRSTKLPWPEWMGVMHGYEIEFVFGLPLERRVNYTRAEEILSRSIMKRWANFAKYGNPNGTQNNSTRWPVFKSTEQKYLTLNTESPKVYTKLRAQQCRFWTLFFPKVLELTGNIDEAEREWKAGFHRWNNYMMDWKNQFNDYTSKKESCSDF

In assay [1], `CC(C)CNC(=S)NC1CCCCC1` [Compound 1, 1-isobutyl-3-cyclohexylthiourea] had a 50% inhibitory concentration (IC50) of 415 µM, an inhibition at 62.5 µg/mL of 46.52 ± 0.38%, an inhibition at 125 µg/mL of 53.64 ± 0.16% and an inhibition at 250 µg/mL of 57.6 ± 1.7%. In addition, in assay [1], 500 µg/mL produced 63.94 ± 0.45% inhibition and the inhibition at 1000 µg/mL came to 69.47 ± 0.22%. Also, in assay [2], the IC50 was 392 µM, testing at 62.5 µg/mL gave an inhibition of 46.9 ± 0.42%, the inhibition at 125 µg/mL came out at 56.4 ± 0.63% and the inhibition at 250 µg/mL was found to be 61 ± 0.33%. Moreover, in assay [2], the inhibition at 500 µg/mL was 66.2 ± 0.73% and the inhibition at 1000 µg/mL was 74.4 ± 0.68%.
On to `CC(C)(C)NC(=S)NC1CCCCC1` [Compound 2, 1-tert-butyl-3-cyclohexylthiourea], for which, in assay [1], the IC50 is 1400 µM, at 62.5 µg/mL the inhibition was 38.7 ± 0.68%, the inhibition at 125 µg/mL stood at 44.7 ± 1.25% and the inhibition at 250 µg/mL was found to be 48 ± 0.75%. Moreover, in assay [1], testing at 500 µg/mL gave an inhibition of 56.3 ± 1.06% and testing at 1000 µg/mL gave an inhibition of 63.3 ± 0.98%. In assay [2], this compound had a 50% inhibitory concentration (IC50) of 863 µM, an inhibition at 62.5 µg/mL of 41.3 ± 1.01%, an inhibition at 125 µg/mL of 46.7 ± 0.78% and an inhibition at 250 µg/mL of 51.4 ± 1.65%. In assay [2], this compound displayed an inhibition at 500 µg/mL of 57.9 ± 0.97% and an inhibition at 1000 µg/mL of 65.2 ± 0.72%.
In assay [1], `S=C(Nc1cccc(Cl)c1)NC1CCCCC1` [Compound 3, 1-(3-chlorophenyl)-3-cyclohexylthiourea] showed an IC50 of 186 µM, an inhibition at 62.5 µg/mL of 51.9 ± 1.16%, an inhibition at 125 µg/mL of 57.34 ± 0.55% and an inhibition at 250 µg/mL of 61.36 ± 0.49%. In assay [1], this compound registered an inhibition at 500 µg/mL of 67.39 ± 0.49%. Besides, in assay [2], it took 223 µM to reach half-maximal inhibition (IC50), testing at 62.5 µg/mL gave an inhibition of 49.9 ± 0.65%, testing at 125 µg/mL gave an inhibition of 57.2 ± 0.57% and testing at 250 µg/mL gave an inhibition of 65.5 ± 1.04%. In assay [2], this compound gave an inhibition at 500 µg/mL of 71.3 ± 1.11% and an inhibition at 1000 µg/mL of 76.7 ± 0.66%.
In assay [1], `CCCCN(CCCC)C(=S)Nc1ccccc1` [Compound 4, 1-(1,1-dibutyl)-3-phenylthiourea] gave an IC50 of 219 µM, an inhibition at 62.5 µg/mL of 47.9 ± 0.47%, an inhibition at 125 µg/mL of 71.8 ± 1.5% and an inhibition at 250 µg/mL of 77.8 ± 2.26%. Further, in assay [1], at 500 µg/mL the inhibition was 85.4 ± 0.2% and the inhibition at 1000 µg/mL came out at 93.6 ± 1.12%. This compound had an inhibition at 31.5 µg/mL in assay [1] (Conc. 31.5 µg/mL) of 39 ± 0.88%. In assay [2], the IC50 is 238 µM, the inhibition at 62.5 µg/mL amounted to 53.5 ± 0.9%, testing at 125 µg/mL gave an inhibition of 77.4 ± 1.7% and testing at 250 µg/mL gave an inhibition of 89.8 ± 1.5%. In assay [2], the inhibition at 500 µg/mL worked out at 94.4 ± 0.5% and testing at 1000 µg/mL gave an inhibition of 98%. In assay [2] (Conc. 31.5 µg/mL), 31.5 µg/mL produced 47.3 ± 0.7% inhibition.
In assay [1], `S=C(Nc1ccccc1)Nc1ccccc1Cl` [Compound 5, 1-(2-chlorophenyl)-3-phenylthiourea] showed a half-inhibitory concentration (IC50) of 1310 µM, an inhibition at 62.5 µg/mL of 29 ± 0.3%, an inhibition at 125 µg/mL of 35.5 ± 0.5% and an inhibition at 250 µg/mL of 41.7 ± 0.77%. In assay [1], the inhibition at 500 µg/mL stood at 59.7 ± 0.61% and the inhibition at 1000 µg/mL is 66.79 ± 0.63%. In assay [2], this compound had an IC50 of 1180 µM, an inhibition at 62.5 µg/mL of 31.7 ± 0.61%, an inhibition at 125 µg/mL of 37.5 ± 0.5% and an inhibition at 250 µg/mL of 44.5 ± 0.64%. Further, in assay [2], testing at 500 µg/mL gave an inhibition of 63.86 ± 0.6% and the inhibition at 1000 µg/mL worked out at 71.6 ± 0.74%.
In assay [1], `S=C(Nc1ccccc1)Nc1ccc(Cl)cc1` [Compound 6, 1-(4-chlorophenyl)-3-phenylthiourea] gave an IC50 of 1080 µM, an inhibition at 62.5 µg/mL of 31.9 ± 0.48%, an inhibition at 125 µg/mL of 39 ± 0.48% and an inhibition at 250 µg/mL of 47.9 ± 0.96%. Further, in assay [1], the inhibition at 500 µg/mL turned out to be 61.6 ± 1.34% and 1000 µg/mL produced 69.6 ± 1.12% inhibition. Further, in assay [3], the “potency as mushroom tyrosinase inhibitor” value is recorded as “moderate potency”. Also, in assay [2], the half-inhibitory concentration (IC50) was 1010 µM, the inhibition at 62.5 µg/mL was determined as 33 ± 1.15%, the inhibition at 125 µg/mL was found to be 42.7 ± 0.89% and the inhibition at 250 µg/mL was 49 ± 0.58%. For the same compound, in assay [2], testing at 500 µg/mL gave an inhibition of 63.03 ± 0.23% and the inhibition at 1000 µg/mL was 71.33 ± 0.49%. In addition, in assay [4], the IC50 was 3.4 µM.
